“Also recorded” adds a separate entry of the source.
Test system: pure and enrichment cultures
Assay: Toxicity experiments: effect of PFAS on biomass over a 14-day incubation
Format: cell-based, Acidimicrobiaceae sp. A6 / Terrimonas sp. A8
Conditions: for biomass growth: 1 ppm, pure culture incubations, 14 days; for toxicity / effects on the overall bacterial numbers: 1 ppb, 10 ppb, 100 ppb and 1 ppm, 14 days incubation, pure and enrichment cultures
Protocol: Toxicity experiments were conducted for both pure and enrichment cultures with selected PFAS Compounds. The concentrations to test were 1 ppb, 10 ppb, 100 ppb and 1 ppm. During 14 days incubation, no toxicity of Heptafluorobutyric acid (HFBA), Perfluorooctanoic acid (PFOA) was evidenced by cultures with these concentrations.
All Incubations were conducted in 20-ml serum vials with a pure strain A6 (Acidimicrobiaceae sp.)/A8 (Terrimonas sp.) or an enrichment culture, which contained 40.1-48.5% of Acidimicrobiaceae sp. A6, and in the anoxic inorganic Fe(III)-NH4^+ enrichment medium. The composition of the inorganic Fe(III)-NH4^+ enrichment medium (pH 4.5-5.0) consisted of 504 mg/L 2-line ferrihydrite [Fe2O3·0.5H2O], 177 mg/l NH4Cl, 77.9 mg/L (NH4)2SO4, 19.8 mg/L NaHCO3, 71.0 mg/L KHCO3, 9.00 mg/L KH2PO4, 100 mg/L MgSO4·7H2O, and 60.0 mg/L CaCl2·2H2O, in addition to 1 ml/L of a trace element solution, and 1 ml/L of a vitamin solution (ATCC® MD-VS™). An electron shuttling compound, 9,10-Anthraquinone-2,7-disulphonic acid (AQDS), was added to the pure strain A6 with a final concentration as 0.05 mg/L. To achieve strictly anoxic conditions, the headspace of each incubation vial was vacuumed until no bubble formation was observed and then flushed with a N2/CO2 (80:20) gas mixture, which was repeated 3 times. Then, for the PFAS degradation experiment, an equal volume of either HFBA, PFOA and PFBS was added to each group of vials, to yield final concentrations to 100 ppb. In the control group, autoclave control, without PFASs and without addition of NH4^+ were prepared. All These vials were placed on a shaker (100 rpm) in an anaerobic glove box for 14-day incubations at ambient temperature. Duplicate samples were collected destructively every week for Fe(II), NH4^+, and HFBA/PFOA/PFBS analyses.
Toxicity experiments, in terms of how each of these PFAS affects the biomass over a 14-day incubation, were conducted for both pure and enrichment cultures. The concentrations tested were 1 ppb, 10 ppb, 100 ppb and 1 ppm. During 14 days of incubation, no effects by Heptafluorobutyric acid (HFBA) and Perfluorooctanoic acid (PFOA) on the overall bacterial numbers were detected for these concentrations. However, the biomass growth was inhibited when the concentration of 2,2,2-Trifluoroethyl Nonafluorobutanesulfonate was 1 ppm in the incubation with the pure culture.

| SMILES | biomass growth | biomass growth (listed as 2,2,2-Trifluoroethyl Nonafluorobutanesulfonate) | toxicity / effects on the overall bacterial numbers |
| --- | --- | --- | --- |
| O=S(=O)(OCC(F)(F)F)C(F)(F)C(F)(F)C(F)(F)C(F)(F)F [PFBS, 2,2,2-Trifluoroethyl Nonafluorobutanesulfonate] | slightly inhibited | inhibited |  |
| O=C(O)C(F)(F)C(F)(F)C(F)(F)F [HFBA, Heptafluorobutyric acid] |  |  | no toxicity; also recorded: no effects |
| O=C(O)C(F)(F)C(F)(F)C(F)(F)C(F)(F)C(F)(F)C(F)(F)C(F)(F)F [PFOA, Perfluorooctanoic acid] |  |  | no toxicity; also recorded: no effects |

From patent US12252423B2, “Biodegradation of fluorochemicals” (The Trustees of Princeton University, priority 2018, dated 2025)
